# System: blood calcium
# Test: Blood calcium (calcemia) in rats after administration of calcitonin compositions
# Format: in vivo, female Wistar rats
# Conditions: oral, 72 IU per animal, FIG. 5
# Method: The study was carried out on female Wistar rats weighing 150 g, divided into groups of 4 rats. Oral administration was effected using an esophageal tube in a volume of 300 μl, corresponding to […] administered per animal.
# A volume of 100 μl of an aqueous solution of calcitonin with a titer of 20 IU/ml, corresponding to a dose of 2 IU of calcitonin per animal, was administered subcutaneously to a positive control group.
# A volume of 300 μl of an aqueous solution of calcitonin with a titer of 240 IU/ml, corresponding to 72 IU per animal, was administered orally to a negative control group.
# The animals were fasted (water diet) 24 hours before the experiment. Blood samples were taken retro-orbitally under general anesthetic at T0 (before administration), T0+1 h, T0+2 h or T0+3 h, T0+5 h. 50 μl of blood are collected in microcapillary tubes containing heparin.
# The blood calcium and pH are measured immediately after sample collection, directly in the microcapillary tube, by means of a CIBA-CORNING model 634 automatic analyzer to give the calcemia.
substance,measurement,value
calcitonin [non-encapsulated calcitonin solution],decrease of calcemia,not observed

# Source: patent publication US6770292B2, “Pharmaceutical compositions for oral administration” (Capsules, priority 2000, dated 2004)
